Read-outs that look alike come from different tables or passages of the source.
How the values were obtained:
Assay in all cases: Test B pre-/postemergence plant response
Assay type in all cases: in vivo
[1] = system: galium (catchweed bedstraw, Galium aparine); settings: Preemergence
In short: (§1)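 Test compounds, formulated in a non-phytotoxic solvent mixture with surfactant, are applied to the soil surface (loam and sand blend) right after seeding, or sprayed over plants at the 1- to 4-leaf stage grown in peat moss/vermiculite medium. After 13 to 15 days under glasshouse conditions, each species is scored visually from 0 (no effect) to 100 (complete control) against controls.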

[2] = system: sunflower (common oilseed sunflower, Helianthus annuus); settings: Preemergence
In short: as §1

[3] = system: lambsquarters (Chenopodium album); settings: for pest or weed control at 31 g/ha: 31 g ai/ha; for pest or weed control at 125 g/ha: 125 g ai/ha
In short: as §1

[4] = system: Italian ryegrass (Lolium multiflorum); settings: for pest or weed control at 31 g/ha: 31 g ai/ha; for pest or weed control at 125 g/ha: 125 g ai/ha
In short: as §1

[5] = system: ragweed (common ragweed, Ambrosia elatior); settings: for pest or weed control at 31 g/ha: 31 g ai/ha; for pest or weed control at 125 g/ha: 125 g ai/ha
In short: as §1

[6] = system: bermudagrass (Cynodon dactylon); settings: for pest or weed control at 31 g/ha: 31 g ai/ha; for pest or weed control at 125 g/ha: 125 g ai/ha
In short: as §1

[7] = 125 g ai/ha, scale 0 to 100, 0 no effect, 100 complete control
[8] = 62 g ai/ha, postemergence, 0 is no effect, 100 is complete control, 13 to 15 days
[9] = Preemergence, 250 g ai/ha, 0 to 100 scale

COCCCn1c(-c2ccccc2)ncc(C(=O)C2=C(O)CCCC2=O)c1=O [Compound 81, 5-[(2-hydroxy-6-oxo-cyclohexen-1-yl)carbonyl]-3-(3-methoxypropyl)-2-phenyl-4(3H)-pyrimidinone]
Plant response rating, Galium [1, 7]: 100 | Galium plant response rating ([1]; 250 g ai/ha, 0 to 100 scale): 100 | Plant response rating, Sunflower ([2]; 31 g ai/ha, scale 0 to 100 (0 no effect, 100 complete control)): 60 | Plant response rating, Sunflower ([2]; 62 g ai/ha, scale 0 to 100, 0 no effect, 100 complete control): 75 | Plant response rating, Sunflower [2, 7]: 85 | Sunflower plant response rating ([2]; 250 g ai/ha, 0 to 100 scale): 90 | Lambsquarters plant response rating (0 to 100 scale) [3, 8]: 98 | pest or weed control at 31 g/ha ([3]; Chenopodium album, post-emergence, postemergence, scale 0 to 100, 0 is no effect, 100 is complete control, read-out: Plant response rating, Lambsquarters): 95% | pest or weed control at 125 g/ha ([3]; Chenopodium album, post-emergence, Postemergence, visual rating after 13 to 15 days, scale 0 (no effect) to 100 (complete control)): 100% | pest or weed control at 250 g/ha ([3]; Chenopodium album, post-emergence, Postemergence, 250 g ai/ha, scale 0 to 100 (0 no effect, 100 complete control), read-out: Plant response rating, Lambsquarters): 100% | pest or weed control at 31 g/ha ([3]; Chenopodium album, pre-emergence, Preemergence, scale 0 to 100 (0 no effect, 100 complete control), read-out: Plant response rating, Lambsquarters): 98% | pest or weed control at 62 g/ha ([3]; Chenopodium album, pre-emergence, Preemergence, 62 g ai/ha, scale 0 to 100, 0 no effect, 100 complete control, read-out: Plant response rating, Lambsquarters): 98% | pest or weed control at 125 g/ha ([3]; Chenopodium album, pre-emergence, Preemergence, scale 0 to 100, 0 no effect, 100 complete control, read-out: Plant response rating, Lambsquarters): 98% | Lambsquarters plant response rating [3, 9]: 98 | Ryegrass, Italian plant response rating (0 to 100 scale) [4, 8]: 5 | pest or weed control at 31 g/ha ([4]; Lolium multiflorum, post-emergence, postemergence, scale 0 to 100, 0 is no effect, 100 is complete control, read-out: Plant response rating, Ryegrass, Italian): 0% | pest or weed control at 125 g/ha ([4]; Lolium multiflorum, post-emergence, Postemergence, visual rating after 13 to 15 days, scale 0 (no effect) to 100 (complete control)): 45% | pest or weed control at 250 g/ha ([4]; Lolium multiflorum, post-emergence, Postemergence, 250 g ai/ha, scale 0 to 100 (0 no effect, 100 complete control), read-out: Plant response rating, Ryegrass, Italian): 55% | pest or weed control at 31 g/ha ([4]; Lolium multiflorum, pre-emergence, Preemergence, scale 0 to 100 (0 no effect, 100 complete control), read-out: Plant response rating, Ryegrass, Italian): 0% | pest or weed control at 62 g/ha ([4]; Lolium multiflorum, pre-emergence, Preemergence, 62 g ai/ha, scale 0 to 100 (0 no effect, 100 complete control), read-out: Plant response rating, Ryegrass, Italian): 0% | pest or weed control at 125 g/ha ([4]; Lolium multiflorum, pre-emergence, Preemergence, scale 0 to 100, 0 no effect, 100 complete control, read-out: Plant response rating, Ryegrass, Italian): 0% | Ryegrass, Italian plant response rating [4, 9]: 0 | Ragweed plant response rating (0 to 100 scale) [5, 8]: 80 | pest or weed control at 31 g/ha ([5]; Ambrosia artemisiifolia, post-emergence, 360 h, postemergence, scale 0 to 100, 0 is no effect, 100 is complete control, read-out: Plant response rating, Ragweed): 75% | pest or weed control at 125 g/ha ([5]; Ambrosia artemisiifolia, post-emergence, 360 h, Postemergence, visual rating after 13 to 15 days, scale 0 (no effect) to 100 (complete control)): 98% | pest or weed control at 250 g/ha ([5]; Ambrosia artemisiifolia, post-emergence, 360 h, Postemergence, 250 g ai/ha, scale 0 to 100 (0 no effect, 100 complete control), read-out: Plant response rating, Ragweed): 100% | pest or weed control at 31 g/ha ([5]; Ambrosia artemisiifolia, pre-emergence, 360 h, Preemergence, scale 0 to 100 (0 no effect, 100 complete control), read-out: Plant response rating, Ragweed): 60% | pest or weed control at 62 g/ha ([5]; Ambrosia artemisiifolia, pre-emergence, 360 h, Preemergence, 62 g ai/ha, scale 0 to 100 (0 no effect, 100 complete control), read-out: Plant response rating, Ragweed): 85% | pest or weed control at 125 g/ha ([5]; Ambrosia artemisiifolia, pre-emergence, 360 h, Preemergence, scale 0 to 100, 0 no effect, 100 complete control, read-out: Plant response rating, Ragweed): 90% | Ragweed plant response rating [5, 9]: 90 | Bermudagrass plant response rating (0 to 100 scale) [6, 8]: 85 | pest or weed control at 31 g/ha ([6]; Cynodon dactylon, post-emergence, postemergence, scale 0 to 100, 0 is no effect, 100 is complete control, read-out: Plant response rating, Bermudagrass): 85% | pest or weed control at 125 g/ha ([6]; Cynodon dactylon, post-emergence, Postemergence, visual rating after 13 to 15 days, scale 0 (no effect) to 100 (complete control)): 95% | pest or weed control at 250 g/ha ([6]; Cynodon dactylon, post-emergence, Postemergence, 250 g ai/ha, scale 0 to 100 (0 no effect, 100 complete control), read-out: Plant response rating, Bermudagrass): 95% | pest or weed control at 31 g/ha ([6]; Cynodon dactylon, pre-emergence, Preemergence, scale 0 to 100 (0 no effect, 100 complete control), read-out: Plant response rating, Bermudagrass): 100% | pest or weed control at 62 g/ha ([6]; Cynodon dactylon, pre-emergence, Preemergence, 62 g ai/ha, scale 0 to 100, 0 no effect, 100 complete control, read-out: Plant response rating, Bermudagrass): 100% | pest or weed control at 125 g/ha ([6]; Cynodon dactylon, pre-emergence, Preemergence, scale 0 to 100, 0 no effect, 100 complete control, read-out: Plant response rating, Bermudagrass): 100% | Bermudagrass plant response rating ([6]; Preemergence, 250 g ai/ha, 0 to 100 scale, 0 no effect, 100 complete control): 100
